The term IC50 denotes the concentration that inhibits the measured activity by half. A word on the AUC: it is the area under the concentration-time curve, a measure of exposure. Low values mean less exposure, high ones more exposure. A word on the half-life: it is the time needed for the level to fall by half in the phase considered. The low end stands for rapid decline, the high end for slow decline. As usually defined, the clearance is the rate of elimination divided by the concentration. Low readings indicate inefficient removal, high ones efficient removal. Usually Cmax stands for the maximum level reached in the sampled fluid or tissue. One may read the bioavailability as the share of a dose that reaches the circulation, judged against a reference dose that is usually intravenous. Low values mean little systemic uptake, high ones much systemic uptake.

The source of these data is ChEMBL document CHEMBL1139105, “1,2,3-Thiadiazole substituted pyrazolones as potent KDR/VEGFR-2 kinase inhibitors” (Bioorg Med Chem Lett, 2007).

Molecules are shown by their SMILES.

Data set [1] deals with Vascular endothelial growth factor receptor 2 (Homo sapiens, UniProt P35968). Kind of data set: Inhibition of human cytoplasmic VEGFR2 expressed in baculovirus after 15 mins by time resolved fluorescence assay.
Chain of Vascular endothelial growth factor receptor 2 (P35968 whole entry): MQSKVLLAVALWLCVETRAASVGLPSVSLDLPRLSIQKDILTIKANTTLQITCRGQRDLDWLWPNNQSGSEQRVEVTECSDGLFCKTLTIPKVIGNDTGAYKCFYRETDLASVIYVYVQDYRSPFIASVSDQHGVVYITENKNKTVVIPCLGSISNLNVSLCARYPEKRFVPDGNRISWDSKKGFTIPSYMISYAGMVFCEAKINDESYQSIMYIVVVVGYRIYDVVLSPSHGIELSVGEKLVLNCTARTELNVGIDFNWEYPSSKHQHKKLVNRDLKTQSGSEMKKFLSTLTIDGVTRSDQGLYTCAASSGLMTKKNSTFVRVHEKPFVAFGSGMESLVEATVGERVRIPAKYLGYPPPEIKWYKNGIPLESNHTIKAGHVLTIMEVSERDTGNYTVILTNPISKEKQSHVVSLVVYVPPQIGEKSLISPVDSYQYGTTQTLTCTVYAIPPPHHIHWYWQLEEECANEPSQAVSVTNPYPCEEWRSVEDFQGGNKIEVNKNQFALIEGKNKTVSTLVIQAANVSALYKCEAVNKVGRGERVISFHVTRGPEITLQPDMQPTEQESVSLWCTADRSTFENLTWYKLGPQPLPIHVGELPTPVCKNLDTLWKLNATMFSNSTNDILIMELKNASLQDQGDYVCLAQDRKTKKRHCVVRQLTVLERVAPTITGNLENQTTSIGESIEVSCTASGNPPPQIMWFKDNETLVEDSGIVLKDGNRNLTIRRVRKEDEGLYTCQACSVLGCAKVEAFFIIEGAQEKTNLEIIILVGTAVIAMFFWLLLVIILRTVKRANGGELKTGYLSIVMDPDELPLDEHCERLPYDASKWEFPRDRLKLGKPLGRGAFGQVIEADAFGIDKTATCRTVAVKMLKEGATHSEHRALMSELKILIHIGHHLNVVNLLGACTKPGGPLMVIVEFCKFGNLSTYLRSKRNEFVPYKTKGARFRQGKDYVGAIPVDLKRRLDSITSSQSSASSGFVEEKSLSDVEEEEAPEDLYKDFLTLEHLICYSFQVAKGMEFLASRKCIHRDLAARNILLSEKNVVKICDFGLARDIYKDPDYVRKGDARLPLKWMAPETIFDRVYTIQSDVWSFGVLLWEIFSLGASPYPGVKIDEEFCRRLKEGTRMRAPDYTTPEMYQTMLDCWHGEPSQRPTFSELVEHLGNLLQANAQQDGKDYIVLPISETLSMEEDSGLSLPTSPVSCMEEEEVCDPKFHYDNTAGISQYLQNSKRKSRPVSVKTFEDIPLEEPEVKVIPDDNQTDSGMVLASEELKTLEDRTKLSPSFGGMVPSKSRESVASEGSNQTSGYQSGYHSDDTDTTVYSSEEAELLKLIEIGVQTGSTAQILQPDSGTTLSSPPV
Data set [2] concerns Rattus norvegicus. Kind of data set: (§1) Oral bioavailability in rat at 5 mg/kg. It is filed as ADME, organism-based. Conditions: in vivo.
For data set [3], the system named is Rattus norvegicus. The data set is described as follows: (§2) AUC in rat at 1 mg/kg, iv. It is filed as ADME, organism-based, Plasma. More on the design: dose 1 mg/kg, route intravenous. Conditions: in vivo.
Data set [4] deals with Rattus norvegicus. Kind of data set: (§3) AUC in rat at 5 mg/kg, po. It is filed as ADME, organism-based, Plasma. Also noted: dose 5 mg/kg, route oral. Conditions: in vivo.
Data set [5] can be described thus: Half life in rat at 1 mg/kg, iv. The class given is ADME, organism-based. More on the design: dose 1 mg/kg, route intravenous. Conditions: in vivo.
Data set [6] is described as follows: Half life in rat at 5 mg/kg, po. The class given is ADME, organism-based. Also noted: dose 5 mg/kg, route oral. Conditions: in vivo.
A short description of data set [7]: Volume of distribution in rat at 1 mg/kg, iv. It is filed as ADME, organism-based. More on the design: dose 1 mg/kg, route intravenous. Conditions: in vivo, read-out: Vdss.
A short description of data set [8]: Clearance in rat at 1 mg/kg, iv. It is filed as ADME, organism-based. More on the design: dose 1 mg/kg, route intravenous. Conditions: in vivo.
Data set [9] is described as follows: Cmax in rat at 5 mg/kg, po. It is filed as ADME, organism-based. More on the design: dose 5 mg/kg, route oral. Conditions: in vivo.
Data set [10] in a line: as §2. The class given is ADME, organism-based, Plasma. More on the design: dose 1 mg/kg, route intravenous. Conditions: plasma.
For data set [11], the target named is Vascular endothelial growth factor receptor 1 (Homo sapiens, UniProt P17948). The data set is described as follows: Inhibition of VEGFR1.
Chain of Vascular endothelial growth factor receptor 1 (P17948 whole entry): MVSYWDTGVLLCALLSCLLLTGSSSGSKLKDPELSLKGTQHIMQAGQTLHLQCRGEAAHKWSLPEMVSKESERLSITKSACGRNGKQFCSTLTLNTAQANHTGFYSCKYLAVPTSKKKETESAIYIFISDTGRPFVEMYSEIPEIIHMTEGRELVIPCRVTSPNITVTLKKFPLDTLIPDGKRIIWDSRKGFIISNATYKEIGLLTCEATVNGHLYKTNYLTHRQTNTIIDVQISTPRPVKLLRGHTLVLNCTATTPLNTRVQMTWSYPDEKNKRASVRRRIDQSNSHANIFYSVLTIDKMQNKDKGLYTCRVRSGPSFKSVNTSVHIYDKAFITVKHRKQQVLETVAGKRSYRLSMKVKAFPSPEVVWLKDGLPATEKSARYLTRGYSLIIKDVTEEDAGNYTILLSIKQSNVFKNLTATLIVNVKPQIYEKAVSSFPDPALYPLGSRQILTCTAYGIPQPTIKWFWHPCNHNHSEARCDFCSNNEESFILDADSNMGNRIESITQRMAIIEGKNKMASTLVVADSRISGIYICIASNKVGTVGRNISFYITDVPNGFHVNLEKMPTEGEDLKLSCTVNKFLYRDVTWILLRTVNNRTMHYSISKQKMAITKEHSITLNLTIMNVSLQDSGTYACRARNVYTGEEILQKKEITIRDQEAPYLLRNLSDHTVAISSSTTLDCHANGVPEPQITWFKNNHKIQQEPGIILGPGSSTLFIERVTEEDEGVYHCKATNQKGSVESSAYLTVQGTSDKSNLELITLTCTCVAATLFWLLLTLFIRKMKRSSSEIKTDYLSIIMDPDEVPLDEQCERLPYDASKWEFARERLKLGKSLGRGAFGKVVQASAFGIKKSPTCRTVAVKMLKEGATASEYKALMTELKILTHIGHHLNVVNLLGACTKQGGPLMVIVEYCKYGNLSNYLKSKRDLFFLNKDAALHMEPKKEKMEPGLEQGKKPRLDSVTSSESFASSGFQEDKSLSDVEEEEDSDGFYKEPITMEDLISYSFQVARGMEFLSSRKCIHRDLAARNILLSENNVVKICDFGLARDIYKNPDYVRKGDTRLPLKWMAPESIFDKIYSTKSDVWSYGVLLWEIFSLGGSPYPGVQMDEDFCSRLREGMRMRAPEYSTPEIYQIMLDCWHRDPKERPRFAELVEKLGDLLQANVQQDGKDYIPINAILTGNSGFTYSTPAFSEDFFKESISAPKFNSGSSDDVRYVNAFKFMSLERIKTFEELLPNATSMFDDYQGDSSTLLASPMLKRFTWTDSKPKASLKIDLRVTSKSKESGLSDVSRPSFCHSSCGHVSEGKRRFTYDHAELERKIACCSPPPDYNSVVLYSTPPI
For data set [12], the target named is Vascular endothelial growth factor receptor 3 (Homo sapiens, UniProt P35916). The data set is described as follows: Inhibition of VEGFR3.
In data set [13] the target is Proto-oncogene tyrosine-protein kinase Src (Homo sapiens, UniProt P12931). The data set is described as follows: Inhibition of SRC.
The target in another data set is Angiopoietin-1 receptor (Homo sapiens, UniProt Q02763). Kind of data set: Inhibition of Tie2.
Chain of Angiopoietin-1 receptor (Q02763 whole entry): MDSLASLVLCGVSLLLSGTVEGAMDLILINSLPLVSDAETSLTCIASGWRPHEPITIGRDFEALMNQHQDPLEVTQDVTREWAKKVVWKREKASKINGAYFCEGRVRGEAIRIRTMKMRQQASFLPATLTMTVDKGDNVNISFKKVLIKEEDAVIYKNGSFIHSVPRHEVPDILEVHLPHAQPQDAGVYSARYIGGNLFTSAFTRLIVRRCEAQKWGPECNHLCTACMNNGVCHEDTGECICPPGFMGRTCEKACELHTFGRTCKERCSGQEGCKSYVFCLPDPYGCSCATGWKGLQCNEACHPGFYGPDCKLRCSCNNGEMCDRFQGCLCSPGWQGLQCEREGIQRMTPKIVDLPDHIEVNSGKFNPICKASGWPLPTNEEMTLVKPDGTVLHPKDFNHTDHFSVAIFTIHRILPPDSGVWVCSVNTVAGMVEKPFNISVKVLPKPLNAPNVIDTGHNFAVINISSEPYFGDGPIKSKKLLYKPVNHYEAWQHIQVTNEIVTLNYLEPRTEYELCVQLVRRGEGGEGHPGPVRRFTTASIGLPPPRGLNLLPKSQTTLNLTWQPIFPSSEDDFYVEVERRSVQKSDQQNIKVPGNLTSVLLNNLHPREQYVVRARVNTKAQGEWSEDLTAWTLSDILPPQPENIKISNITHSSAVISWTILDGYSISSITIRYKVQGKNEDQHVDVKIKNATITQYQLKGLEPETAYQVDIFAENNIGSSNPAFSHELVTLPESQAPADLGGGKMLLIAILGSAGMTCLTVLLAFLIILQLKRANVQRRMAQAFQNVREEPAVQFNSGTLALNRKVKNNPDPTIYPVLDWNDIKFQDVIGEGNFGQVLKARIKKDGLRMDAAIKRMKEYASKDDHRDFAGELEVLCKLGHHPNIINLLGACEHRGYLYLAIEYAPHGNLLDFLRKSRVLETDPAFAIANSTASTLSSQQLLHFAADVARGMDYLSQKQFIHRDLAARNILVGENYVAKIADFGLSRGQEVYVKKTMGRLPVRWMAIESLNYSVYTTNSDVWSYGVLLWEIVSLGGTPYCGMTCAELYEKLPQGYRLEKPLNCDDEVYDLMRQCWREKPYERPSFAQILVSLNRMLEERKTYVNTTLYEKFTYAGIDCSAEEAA
Data set [14] concerns the target High affinity nerve growth factor receptor (Homo sapiens, UniProt P04629). Kind of data set: Inhibition of TRK A.
Data set [15] is described as follows: as §1. Conditions: in vivo. The class given is ADME, organism-based.
Data set [16] can be described thus: as §3. The class given is ADME, organism-based, Plasma. More on the design: dose 5 mg/kg, route oral. Conditions: plasma.

Chain of High affinity nerve growth factor receptor (P04629 whole entry): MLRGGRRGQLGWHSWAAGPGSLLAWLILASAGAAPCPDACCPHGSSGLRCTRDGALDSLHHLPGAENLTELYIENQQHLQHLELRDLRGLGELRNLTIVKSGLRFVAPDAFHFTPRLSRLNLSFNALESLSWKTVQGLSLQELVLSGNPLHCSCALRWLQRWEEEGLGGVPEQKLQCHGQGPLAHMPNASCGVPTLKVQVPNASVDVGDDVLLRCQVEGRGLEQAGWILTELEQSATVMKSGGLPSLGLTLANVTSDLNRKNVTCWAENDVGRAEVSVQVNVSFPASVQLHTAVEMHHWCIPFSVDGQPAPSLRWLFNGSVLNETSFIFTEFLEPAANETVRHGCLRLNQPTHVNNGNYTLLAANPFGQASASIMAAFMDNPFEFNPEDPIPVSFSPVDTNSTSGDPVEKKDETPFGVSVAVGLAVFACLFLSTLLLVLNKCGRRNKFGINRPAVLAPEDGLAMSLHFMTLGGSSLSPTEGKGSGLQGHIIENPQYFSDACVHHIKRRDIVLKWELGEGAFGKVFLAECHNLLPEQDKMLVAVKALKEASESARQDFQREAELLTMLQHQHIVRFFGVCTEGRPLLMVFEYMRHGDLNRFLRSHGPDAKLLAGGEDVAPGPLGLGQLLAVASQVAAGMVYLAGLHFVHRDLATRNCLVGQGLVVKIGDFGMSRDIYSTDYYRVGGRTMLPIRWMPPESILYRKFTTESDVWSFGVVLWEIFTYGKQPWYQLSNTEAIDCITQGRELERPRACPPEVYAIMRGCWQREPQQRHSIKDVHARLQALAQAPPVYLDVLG

In [1], `Cc1nnsc1C1=NNC(=O)/C1=C\c1c[nH]c2ccccc12` yielded an IC50 above 1000 nM.
As for `Cc1nnsc1C1=NNC(=O)/C1=C\c1cn(C)c2ccc(C#N)cc12`, in [1], the IC50 was above 300 nM.
Compound `Cc1nnsc1C1=NNC(=O)/C1=C\c1cn(C)c2ccc(F)cc12` gave a F in the data set with Rattus norvegicus [2] of 29%. Besides, the figures for the AUC with Rattus norvegicus [3] and in the data set with Rattus norvegicus [4] were 727 ng·h/mL and 507 ng·h/mL, respectively. Moreover, the half-life in data set [5] was 30 min; in [6], 84 min. The Vd in data set [7] is 1.1 L/kg. Further, the clearance in data set [8] amounted to 25 mL/min/kg. Besides, the concentration in [9] peaked (Cmax) at 356 ng/mL.
In data set [1], `Cc1nnsc1C1=NNC(=O)/C1=C\c1c[nH]c2ccc(Cl)cc12` yielded an IC50 above 300 nM.
In data set [10], `CCOc1cccc2c1c(/C=C1\C(=O)NN=C1c1snnc1C)cn2C` gave an AUC of 1140 ng·h/mL. The half-life in data set [5] is 54 min. In addition, the Vd in [7] stood at 1.1 L/kg. The clearance in [8] worked out at 15 mL/min/kg. Also, the IC50 in [11] was above 3000 nM; in data set [12], 16 nM; in [13] it was 463 nM; on Angiopoietin-1 receptor, above 10000 nM; in data set [14], 36 nM.
`Cn1cc(/C=C2\C(=O)NN=C2c2nccs2)c2c(F)cccc21` registered a bioavailability in [15] of 3%. Moreover, the figures for the AUC in [10] and in data set [16] were 3600 ng·h/mL and 1040 ng·h/mL, respectively. For the same compound, the half-life in data set [5] was 36 min; in data set [6], 72 min. Further, the Vd in data set [7] turned out to be 0.23 L/kg. The clearance in [8] amounted to 4.6 mL/min/kg. Besides, the highest level in data set [9] (Cmax) was 139 ng/mL.
In [10], `COc1cccc2c1c(/C=C1\C(=O)NN=C1c1snnc1C)cn2C` displayed an AUC of 192 ng·h/mL. The same compound showed a half-life in data set [5] of 18 min. In data set [7], the Vd turned out to be 2.2 L/kg. This compound also yielded a clearance in data set [8] of 87 mL/min/kg.
